Source: ChEMBL document CHEMBL4673372, “1,2,3-triazole-thiazole hybrids: Synthesis, in vitro antimicrobial activity and antibiofilm studies” (Bioorg Med Chem Lett, 2021)
pIC50: −log10 of the molar value. ≈ marks a conversion by molar mass, not a printed value.

Each compound was assayed on Candida albicans (assay: Inhibition of biofilm formation in Candida albicans MTCC 3017 incubated for 24 hrs by crystal violet staining based microtiter plate method). Details: not given; call rule not given here.
Type: functional, organism-based

| SMILES | IC50 |
| --- | --- |
| O=C(O)c1cn(C2CC2)c2cc(N3CCNCC3)c(F)cc2c1=O [CIPROFLOXACIN] | Not Active |

Each compound was assayed on Pseudomonas aeruginosa (assay: Inhibition of biofilm formation in Pseudomonas aeruginosa MTCC 2453 incubated for 24 hrs by crystal violet staining based microtiter plate method). Details: Pseudomonas aeruginosa, MTCC 2453, 24 h; read-out: IC50.
Type: functional, organism-based

| SMILES | pIC50 |
| --- | --- |
| O=C(O)c1cn(C2CC2)c2cc(N3CCNCC3)c(F)cc2c1=O [CIPROFLOXACIN] | 6.30 |

Each compound was assayed on Escherichia coli (assay: Inhibition of biofilm formation in Escherichia coli MTCC 739 incubated for 24 hrs by crystal violet staining based microtiter plate method). Details: Escherichia coli, MTCC 739, 24 h; read-out: IC50.
Type: functional, organism-based

| SMILES | pIC50 |
| --- | --- |
| O=C(O)c1cn(C2CC2)c2cc(N3CCNCC3)c(F)cc2c1=O [CIPROFLOXACIN] | 6.22 |

The compounds below were run on Raoultella planticola (assay: Inhibition of biofilm formation in Klebsiella planticola MTCC 530 incubated for 24 hrs by crystal violet staining based microtiter plate method). Details: Klebsiella planticola, MTCC 530, 24 h; read-out: IC50.
Type: functional, organism-based

| SMILES | pIC50 |
| --- | --- |
| O=C(O)c1cn(C2CC2)c2cc(N3CCNCC3)c(F)cc2c1=O [CIPROFLOXACIN] | 6.10 |

Each compound was assayed on Pseudomonas aeruginosa (assay: Bactericidal activity against Pseudomonas aeruginosa MTCC 2453). Details: not given.
Type: functional

| SMILES | MBC [µM] |
| --- | --- |
| O=C(O)c1cn(C2CC2)c2cc(N3CCNCC3)c(F)cc2c1=O [CIPROFLOXACIN] | 2.7 (≈ 0.895 µg/mL) |

The compounds below were run on Raoultella planticola (assay: Bactericidal activity against Klebsiella planticola MTCC 530). Details: not given.
Type: functional

| SMILES | MBC [µM] |
| --- | --- |
| O=C(O)c1cn(C2CC2)c2cc(N3CCNCC3)c(F)cc2c1=O [CIPROFLOXACIN] | 2.7 (≈ 0.895 µg/mL) |

What follows are compounds tested on Escherichia coli (assay: Bactericidal activity against Escherichia coli MTCC 739). Details: not given.
Type: functional

| SMILES | MBC [µM] |
| --- | --- |
| O=C(O)c1cn(C2CC2)c2cc(N3CCNCC3)c(F)cc2c1=O [CIPROFLOXACIN] | 2.7 (≈ 0.895 µg/mL) |

The compounds below were run on Micrococcus luteus (assay: Bactericidal activity against Micrococcus luteus MTCC 2470). Details: not given.
Type: functional

| SMILES | MBC [µM] |
| --- | --- |
| O=C(O)c1cn(C2CC2)c2cc(N3CCNCC3)c(F)cc2c1=O [CIPROFLOXACIN] | 2.7 (≈ 0.895 µg/mL) |

Each compound was assayed on Bacillus subtilis (assay: Bactericidal activity against Bacillus subtilis MTCC 121). Details: not given.
Type: functional

| SMILES | MBC [µM] |
| --- | --- |
| O=C(O)c1cn(C2CC2)c2cc(N3CCNCC3)c(F)cc2c1=O [CIPROFLOXACIN] | 2.7 (≈ 0.895 µg/mL) |

What follows are compounds tested on Staphylococcus aureus (assay: Bactericidal activity against Staphylococcus aureus MLS16 MTCC 2940). Details: not given.
Type: functional

| SMILES | MBC [µM] |
| --- | --- |
| O=C(O)c1cn(C2CC2)c2cc(N3CCNCC3)c(F)cc2c1=O [CIPROFLOXACIN] | 2.7 (≈ 0.895 µg/mL) |

What follows are compounds tested on Staphylococcus aureus (assay: Bactericidal activity against Staphylococcus aureus MTCC 96). Details: not given.
Type: functional

| SMILES | MBC [µM] |
| --- | --- |
| O=C(O)c1cn(C2CC2)c2cc(N3CCNCC3)c(F)cc2c1=O [CIPROFLOXACIN] | 2.7 (≈ 0.895 µg/mL) |

Each compound was assayed on Pseudomonas aeruginosa (assay: Antibacterial activity against Pseudomonas aeruginosa MTCC 2453 assessed as inhibition of bacterial growth by microtiter broth dilution method). Details: not given.
Type: functional

| SMILES | MIC [µM] |
| --- | --- |
| O=C(O)c1cn(C2CC2)c2cc(N3CCNCC3)c(F)cc2c1=O [CIPROFLOXACIN] | 2.7 (≈ 0.895 µg/mL) |

What follows are compounds tested on Escherichia coli (assay: Antibacterial activity against Escherichia coli MTCC 739 assessed as inhibition of bacterial growth by microtiter broth dilution method). Details: not given.
Type: functional

| SMILES | MIC [µM] |
| --- | --- |
| O=C(O)c1cn(C2CC2)c2cc(N3CCNCC3)c(F)cc2c1=O [CIPROFLOXACIN] | 2.7 (≈ 0.895 µg/mL) |

The compounds below were run on Raoultella planticola (assay: Antibacterial activity against Klebsiella planticola MTCC 530 assessed as inhibition of bacterial growth by microtiter broth dilution method). Details: not given.
Type: functional

| SMILES | MIC [µM] |
| --- | --- |
| O=C(O)c1cn(C2CC2)c2cc(N3CCNCC3)c(F)cc2c1=O [CIPROFLOXACIN] | 2.7 (≈ 0.895 µg/mL) |

What follows are compounds tested on Micrococcus luteus (assay: Antibacterial activity against Micrococcus luteus MTCC 2470 assessed as inhibition of bacterial growth by microtiter broth dilution method). Details: not given.
Type: functional

| SMILES | MIC [µM] |
| --- | --- |
| O=C(O)c1cn(C2CC2)c2cc(N3CCNCC3)c(F)cc2c1=O [CIPROFLOXACIN] | 2.7 (≈ 0.895 µg/mL) |

What follows are compounds tested on Bacillus subtilis (assay: Antibacterial activity against Bacillus subtilis MTCC 121 assessed as inhibition of bacterial growth by microtiter broth dilution method). Details: not given.
Type: functional

| SMILES | MIC [µM] |
| --- | --- |
| O=C(O)c1cn(C2CC2)c2cc(N3CCNCC3)c(F)cc2c1=O [CIPROFLOXACIN] | 2.7 (≈ 0.895 µg/mL) |

The compounds below were run on Staphylococcus aureus (assay: Antibacterial activity against Staphylococcus aureus MLS16 MTCC 2940 assessed as inhibition of bacterial growth by microtiter broth dilution method). Details: not given.
Type: functional

| SMILES | MIC [µM] |
| --- | --- |
| O=C(O)c1cn(C2CC2)c2cc(N3CCNCC3)c(F)cc2c1=O [CIPROFLOXACIN] | 2.7 (≈ 0.895 µg/mL) |

These compounds were tested on Staphylococcus aureus (assay: Antibacterial activity against Staphylococcus aureus MTCC 96 assessed as inhibition of bacterial growth by microtiter broth dilution method). Details: not given.
Type: functional

| SMILES | MIC [µM] |
| --- | --- |
| O=C(O)c1cn(C2CC2)c2cc(N3CCNCC3)c(F)cc2c1=O [CIPROFLOXACIN] | 2.7 (≈ 0.895 µg/mL) |
